Results reported in patent US10787442B2, “Modulators of indoleamine 2,3-dioxygenase” (GLAXOSMITHKLINE INTELLECTUAL PROPERTY DEVELOPMENT LIMITED, priority 2016, dated 2020).
Where two headings read alike, the source gives them in different places.

Tests used:
[1] = system: human peripheral blood mononuclear cells (PBMC); experiment: PBMC cytotoxicity assay (CellTiter-Glo); type: cell-based; conditions: cytotoxicity in stimulated PBMC, recorded as pCC50
[2] = target: indoleamine 2, 3-dioxygenase (IDO1) (Homo sapiens, UniProt P14902); experiment: IDO1 HeLa RapidFire MS Assay (kynurenine by mass spectrometry); type: cell-based; conditions: HeLa cells stimulated with IFN-γ, 2 days; recorded as pIC50; read-out: IDO1 HeLa PXC50 (converted)
Description: IDO1 HeLa RapidFire MS Assay
(§1) Compounds of the present invention were tested via high-throughput cellular assays utilizing detection of kynurenine via mass spectrometry and cytotoxicity as end-points. […] Compounds with IDO1 inhibitory properties decreased the amount of kynurenine produced by the cells via the tryptophan catabolic pathway. Cellular toxicity due to the effect of compound treatment was measured using CellTiter-Glo® reagent (CTG) (Promega Corporation, Madison, Wis.), which is based on luminescent detection of ATP, an indicator of metabolically active cells.
(§2) In preparation for the assays, test compounds were serially diluted 3-fold in DMSO from a typical top concentration of 1 mM or 5 mM and plated at 0.5 μL in 384-well, polystyrene, clear bottom, tissue culture treated plates with lids (Greiner Bio-One, Kremsmünster, Austria) to generate 11-point dose response curves. Low control wells (0% kynurenine or 100% cytotoxicity) contained either 0.5 μL of DMSO in the presence of unstimulated (−IFN-γ) HeLa cells for the mass spectrometry assay or 0.5 μL of DMSO in the absence of cells for the cytotoxicity assay, and high control wells (100% kynurenine or 0% cytotoxicity) contained 0.5 μL of DMSO in the presence of stimulated (+IFN-γ) HeLa cells for both the mass spectrometry and cytotoxicity assays.
(§3) Frozen stocks of HeLa cells were washed and recovered in DMEM high glucose medium with HEPES (Thermo Fisher Scientific, Inc., Waltham, Mass.) supplemented with 10% v/v certified fetal bovine serum (FBS) (Thermo Fisher Scientific, Inc., Waltham, Mass.), and 1× penicillin-streptomycin antibiotic solution (Thermo Fisher Scientific, Inc., Waltham, Mass.). The cells were diluted to 100,000 cells/mL in the supplemented DMEM medium. 50 μL of either the cell suspension, for the mass spectrometry assay, or medium alone, for the cytotoxicity assay, were added to the low control wells, on the previously prepared 384-well compound plates, resulting in 5,000 cells/well or 0 cells/well respectively. IFN-γ was added to the remaining cell suspension at a final concentration of 10 nM, and 50 μL of the stimulated cells were added to all remaining wells on the 384-well compound plates. The plates, with lids, were then placed in a 37° C., 5% CO2 humidified incubator for 2 days.
(§4) Following incubation, the 384-well plates were removed from the incubator and allowed to equilibrate to room temperature for 30 minutes. For the cytotoxicity assay, CellTiter-Glo® was prepared according to the manufacturer's instructions, and 10 μL were added to each plate well. After a twenty minute incubation at room temperature, luminescence was read on an EnVision® Multilabel Reader (PerkinElmer Inc., Waltham, Mass.). For the mass spectrometry assay, 10 μL of supernatant from each well of the compound-treated plates were added to 40 μL of acetonitrile, containing 10 μM of an internal standard for normalization, in 384-well, polypropylene, V-bottom plates (Greiner Bio-One, Kremsmünster, Austria) to extract the organic analytes. Following centrifugation at 2000 rpm for 10 minutes, 10 μL from each well of the acetonitrile extraction plates were added to 90 μL of sterile, distilled H2O in 384-well, polypropylene, V-bottom plates for analysis of kynurenine and the internal standard on the RapidFire 300 (Agilent Technologies, Santa Clara, Calif.) and 4000 QTRAP MS (SCIEX, Framingham, Mass.). MS data were integrated using Agilent Technologies' RapidFire Integrator software, and data were normalized for analysis as a ratio of kynurenine to the internal standard.

[3] = system: human epithelial HeLa cells; experiment: HeLa cytotoxicity assay (CellTiter-Glo); type: cell-based; conditions: cytotoxicity in stimulated HeLa cells, recorded as pCC50
Description: as §1, §2, §3, §4

PAN02 pancreatic cells = conditions: cited from earlier work
ePL tagged IDO1 = target: T1, ePL tagged IDO1 (Homo sapiens, UniProt P14902); experiment: CETSA (Cellular Thermal Shifting assay); type: binding; conditions: Hela cells, 3 hours at 37° C., heated at 53° C. for 3 min
T1 construct: expressed in transfected cells; host or cells: HeLa cells transduced with BacMam virus
Description: Cellular Thermal Shifting assays were used to directly monitor the ligand binding to target proteins in cells. Hela cells were transduced with BacMam virus expressing ePL tagged IDO1 overnight. The cells were then plated over the compounds for 3 hours at 37° C. in cell culture medium containing 1% FBS. The plates were then sealed and heated at 53° C. for 3 min. InCell Hunter reagents were added and luminescence was read in 90 min.

[4] = first value, read-out: pXC50_1 (converted)
[5] = second value, read-out: pXC50_2 (converted)

T1 sequence (P14902 whole entry): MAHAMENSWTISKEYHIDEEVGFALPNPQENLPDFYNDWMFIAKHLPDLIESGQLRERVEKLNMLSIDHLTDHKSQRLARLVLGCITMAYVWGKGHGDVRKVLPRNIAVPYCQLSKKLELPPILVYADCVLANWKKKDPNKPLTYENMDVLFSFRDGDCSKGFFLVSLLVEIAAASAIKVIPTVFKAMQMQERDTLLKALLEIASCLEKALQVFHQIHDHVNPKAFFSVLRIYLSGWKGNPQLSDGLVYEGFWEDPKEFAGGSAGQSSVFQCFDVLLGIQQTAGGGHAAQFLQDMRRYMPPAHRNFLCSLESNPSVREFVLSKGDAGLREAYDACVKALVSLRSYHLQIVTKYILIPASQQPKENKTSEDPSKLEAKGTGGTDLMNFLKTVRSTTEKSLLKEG
Chain of indoleamine 2, 3-dioxygenase (IDO1) (P14902 whole entry): as above

IC50 [2] | EC50 (ePL tagged IDO1; [4]) | EC50 (ePL tagged IDO1; [5]) | SMILES | PBMC_TOX PXC50 [1] | HELA_IDO1_TOX_PXC50 [3] | effect against the same tumor (PAN02 pancreatic cells; immune-deficient mice) | inhibition of tumor growth (PAN02 pancreatic cells; immunocompetent mice, orally dosed)
10 nM |  |  | CC(C)CN(c1ncc([C@H](C)CC(=O)O)cc1Nc1ccc(Cl)nc1)C1CCOCC1 [Example 4, (R)-3-(5-((6-chloropyridin-3-yl)amino)-6-(isobutyl(tetrahydro-2H-pyran-4-yl)amino)pyridin-3-yl)butanoic acid] | <5.0 | <5 |  | 
7.94 nM |  |  | CC(C)CN(c1ncc(C(C)CC(=O)O)cc1Nc1ccc(Cl)cn1)C1CCOCC1 (stereo not shown) [Example 35, 3-{5-[(5-chloropyridin-2-yl)amino]-6-[(2-methylpropyl)(oxan-4-yl)amino]pyridin-3-yl}butanoic acid] | <5.0 | <5 |  | 
631 nM |  |  | CC(C)CN(CC(C)C)c1ncc(C(C)CC(=O)O)cc1Nc1nc(Cl)ns1 (stereo not shown) [Example 32, 3-{6-[bis(2-methylpropyl)amino]-5-[(3-chloro-1,2,4-thiadiazol-5-yl)amino]pyridin-3-yl}butanoic acid] | <5.0 | <5 |  | 
316 nM |  |  | CC(C)CN(c1ncc(C(C)CC(=O)O)cc1Nc1nc(Cl)ns1)C1CCOCC1 (stereo not shown) [Example 34, 3-{5-[(3-chloro-1,2,4-thiadiazol-5-yl)amino]-6-[(2-methylpropyl)(oxan-4-yl)amino]pyridin-3-yl}butanoic acid] | <5.0 | <5 |  | 
12.6 nM |  |  | CC(C)CN(c1ncc([C@H](C)CC(=O)O)cc1Nc1ccc(Cl)c(F)n1)C1CCOCC1 [Example 7, (R)-3-(5-((5-chloro-6-fluoropyridin-2-yl)amino)-6-(isobutyl(tetrahydro-2H-pyran-4-yl)amino)pyridin-3-yl)butanoic acid] | <5.0 | <5 |  | 
10 nM |  |  | CC(C)CN(CC(C)C)c1ncc(C(C)CC(=O)O)cc1Nc1nc(C(F)(F)F)ns1 (stereo not shown) [Example 1, 3-(6-(diisobutylamino)-5-((3-(trifluoromethyl)-1,2,4-thiadiazol-5-yl)amino)pyridin-3-yl)butanoic acid] | <5.0 | <5 |  | 
20 nM |  |  | CC(C)CN(c1ncc(C(C)CC(=O)O)cc1Nc1ccc(C#N)cn1)C1CCOCC1 (stereo not shown) [Example 33, 3-{5-[(5-cyanopyridin-2-yl)amino]-6-[(2-methylpropyl)(oxan-4-yl)amino]pyridin-3-yl}butanoic acid] | <5.0 | <5 |  | 
 |  |  | NS(=O)(=O)NCCNc1nonc1C(=NO)Nc1ccc(F)c(Br)c1 [INCB204360] |  |  | without effect | significant dose-dependent inhibition of tumor growth
5.01 nM |  |  | CC(C)CN(c1ncc(C(C)CC(=O)O)cc1Nc1nc(C(F)(F)F)ns1)C1CCOCC1 (stereo not shown) [Example 31, 3-{6-[(2-methylpropyl)(oxan-4-yl)amino]-5-{[3-(trifluoromethyl)-1,2,4-thiadiazol-5-yl]amino}pyridin-3-yl}butanoic acid] | <5.0 | <5 |  | 
10 nM |  |  | CC(C)CN(c1ncc(C(C)CC(=O)O)cc1Nc1ccc(C(F)(F)F)cn1)C1CCOCC1 (stereo not shown) [Example 2, 3-(6-(isobutyl(tetrahydro-2H-pyran-4-yl)amino)-5-((5-(trifluoromethyl)pyridin-2-yl)amino)pyridin-3-yl)butanoic acid] | <5.0 | <5 |  | 
10 nM |  |  | C[C@H](CC(=O)O)c1cnc(N(CCCCCN)C2CCOCC2)c(Nc2ccc(Cl)cn2)c1 [Example 83, (3R)-3-{6-[(5-aminopentyl)(oxan-4-yl)amino]-5-[(5-chloropyridin-2-yl)amino]pyridin-3-yl}butanoic acid] | <5.0 | <5 |  | 
12.6 nM |  |  | CC(C)CN(c1ncc([C@H](C)CC(=O)O)cc1Nc1nc(C(F)(F)F)ns1)C1CC(F)(F)C1 [Example 20, (R)-3-(6-((3,3-difluorocyclobutyl)(isobutyl)amino)-5-((3-(trifluoromethyl)-1,2,4-thiadiazol-5-yl)amino)pyridin-3-yl)butanoic acid] | <5.0 | <5 |  | 
15.8 nM |  |  | CC(C)CN(c1ncc([C@H](C)CC(=O)O)cc1Nc1cnc(Cl)nc1)C1CCOCC1 [Example 5, (R)-3-(5-((2-chloropyrimidin-5-yl)amino)-6-(isobutyl(tetrahydro-2H-pyran-4-yl)amino)pyridin-3-yl)butanoic acid] | <5.0 | <5 |  | 
 | 5010 nM | 3090 nM | CC(C)CN(c1ncc([C@H](C)CC(=O)O)cc1Nc1ccc(C#N)cn1)C1CCOCC1 [Example 57, (3R)-3-{5-[(5-cyanopyridin-2-yl)amino]-6-[(2-methylpropyl)(oxan-4-yl)amino]pyridin-3-yl}butanoic acid] | <5.0 |  |  | 
10 nM | 162 nM | 186 nM | CC(C)CN(c1ncc([C@H](C)CC(=O)O)cc1Nc1nc(C(F)(F)F)ns1)C1CCOCC1 [Example 3, (R)-3-(6-(isobutyl(tetrahydro-2H-pyran-4-yl)amino)-5-((3-(trifluoromethyl)-1,2,4-thiadiazol-5-yl)amino)pyridin-3-yl)butanoic acid] | <5.0 | <5 |  | 
7.94 nM |  |  | CC(C)CN(CC(C)C)c1ncc([C@H](C)CC(=O)O)cc1Nc1nc(C(F)(F)F)ns1 [Example 40, (3R)-3-{6-[bis(2-methylpropyl)amino]-5-{[3-(trifluoromethyl)-1,2,4-thiadiazol-5-yl]amino}pyridin-3-yl}butanoic acid] | <5.6 | <5 |  | 
